Assay results published in patent US20230192705A1, “SHP2 INHIBITORS, COMPOSITIONS AND USES THEREOF” (Betta Pharmaceuticals Co., Ltd, priority 2020, published 2023).

Columns and labels:
hERG channel = molecular target: T1, hERG channel (Homo sapiens, UniProt Q12809); test: Patch clamp assay to test the effect of compound on hERG channel; format: cell-based; conditions: manual patch clamp, HEK 293 cells expressed with hERG, concentration for half maximum effect
T1 construct: expressed in transfected cells; host or cells: HEK-293
Experimental: 10 mL extracellular solution was used to dilute the stock solution, making the final concentrations of test compound were 0.3 μM, 1 μM, 3 μM, 10 μM and 30 μM.
The solubility of compound was visually observed.
The cell line was derived from HEK-293 cells, and grown in a humidified environment at 37° C. under 5% CO2, using the media formulation below. The cell line should not be allowed to exceed 80% confluence within the culture vessel to prevent contact inhibition causing senescence and should thus be passaged every 3/4 days using a seeding density of 2*10^6 cells per T175 flask. Cell lines were be pre-washed with phosphate buffered saline before harvesting with Trypsin/EDTA and seeded into new flasks.
HEK 293 cells expressed with hERG were plated on cover slips overnight with the cell density less than 50% of confluence. Cells used for electrophysiological study were transferred to a small cell bath (1 mL) mounted on the stage of an inverted microscope (Diaphot, Nikon) and were perfused with external solution containing (in mM) 130 NaCl, 4 KCl, 1.8 CaCl2), 1 MgCl2, 10 glucose and 10 HEPES (pH 7.4 with NaOH), the perfusion rate was 4 mL/min. The internal pipette solution contained (in mM) 130 KCl, 1 MgCl2, 5 ethylene glycol-bis(baminoethyl ether)-N,N,N8,N8-tetraacetic acid, 5 MgATP and 10 HEPES (pH 7.2 with KOH). An HEKA EPC-10 patch-clamp amplifier and PATCHMASTER acquisition program were used to record membrane currents (HEKA Instruments IncD-67466 Lambrecht/Pfalz Germany). All experiments were performed at room temperature (22-23° C.).
The Model P-97 micropipette puller (Sutter Instrument Company, One Digital Drive, Novato, Calif. 94949) was used to pull glass patch pipettes (BF150-86-10) in all experiments.
The experiments were initiated with a 2 min vehicle control period after forming a whole cell configuration with less 5% run-down in 5 min and the tail currents in the report were at least greater than 500 pA. After a 2 min vehicle control period, the perfusion was switched to the reservoir containing the compound at the first concentration. The same procedure was repeated 3-5 times so that each cell was exposed to 4-6 escalating concentrations of compound. The time courses for block and unblock of hERG during compounds exposure and washout were continuously recorded.
The peak tail of hERG was generated by applying 2-sec depolarizing every 12 sec steps from a holding potential of −80 mV, the peak of tail currents were measured at a 5-sec repolarizing pulse at −50 mV.
hERG peak tail currents were directly measured from a 5 sec repolarization pulse at −50 mV. The fraction of control current was plotted as a function of logarithm of compound concentration. To determine the concentration of compound for halfmaximum effect, the concentration-response curve was fitted by Hill equation as shown follow.
where Y is the observed value, Bottom is the lowest observed value (0), Top is the highest observed value (1), and the Hillcoefficient gives the largest absolute value of the slope of the curve.
Data were analyzed by a combination of PATCHMASTER ((HEKA Instruments IncD-67466 Lambrecht/Pfalz Germany) and Origin (OriginLab Corporation, Northampton, Mass.) software programs.
Data were expressed as mean±SEM.

[1] = system: lung cancer NCI-H358 cell; test: Cell proliferation assay (CellTiter-Glo), NCI-H358; format: cell-based; conditions: Homo sapiens; NCI-H358, 96 hrs, CTG; class symbols; read-out: Compound on NCI-H358 cell IC50
Experimental: (§1) The effects of the compounds on the proliferation of leukemia MV-4-11 cell and lung cancer NCI-H358 cell were evaluated by in vitro cell test. The assay used in this study was the CELL TITER-GLO (CTG) luminescence assay, which can detect the number of living cells by quantitative determination of ATP. Because ATP is involved in a variety of enzymatic reactions in vivo and is an indicator of the metabolism of living cells, its content can directly reflects the number and state of cells. During the experiment, Celltiter-Glo™ reagent was added to the cell culture medium to measure the luminescence value. The luminescence value was proportional to the amount of ATP, which in turn was positively correlated with the number of living cells. Therefore, ATP content can be used to detect cell viability.
A bottle of NCI-H358 cells in logarithmic growth phase was taken, the cells were digested and resuspend, counted, and then the cell density was adjusted. After that, the cells were inoculated into a 96-well Ultra-Low Attachment Microplate (Corning #3474), 2000 cells were inoculated in each well, and the well plate was placed in an incubator at 37° C. and 5% CO2, and the compounds of the invention were added for conducting.
(§2) An appropriate amount of the compound of the invention was taken for cell treatment, and the final concentration of the compound from high to low was 1000 nM, 333.3 nM, 111.1 nM, 37.04 nM, 12.35 nM, 4.115 nM, 1.372 nm, 0.4572 nM, 0.1524 nM, 0 nM, respectively. The orifice plate was cultured in an incubator at 37° C. and 5% CO2. Only adding medium without adding cell hole was set as blank group. Compound concentration of 0 nM group was zero control group.
NCI-H358 cells were cultured for 96 hrs, then 50 μL CellTiter-Glo® Luminescent cell viability assay solution was added to each well, and the cells were gently shaken for 2 mins, and incubated at room temperature for 10 mins. The cell reaction system was transferred to 96-well Microplate (Corning #3917). The detection values of each well were read on the multi-functional microplate reader.
(§3) The inhibition rate is calculated according to the luminous value reading,
(§4) Inhibition rate %=(1−(administration group value−blank group value)/(control group value−blank group value)*100
(§5) The log (inhibitor) vs. response variable slope of GraphPad Prism was used to fit the dose-response curve and calculate the IC50 of compounds inhibiting cell proliferation.

leukemia MV-4-11 cell = test: Cell proliferation assay (CellTiter-Glo), MV-4-11; format: cell-based; conditions: Homo sapiens, MV4-11; MV-4-11, 120 hrs, CTG; class symbols; read-out: Compound on MV-4-11 cell IC50
Experimental: as §1
A bottle of MV-4-11 cells in logarithmic growth phase was taken, the cells were collected, centrifuged, resuspend, counted, and then inoculated into 96-well Microplate (Corning #3917), with 4000 cells inoculated in each well. The plates were placed in an incubator at 37° C. and 5% CO2 for 24 hrs culture, and the compounds of the invention were added for conducting.
as §2
After cultured for 120 hrs, MV-4-11 cells were added with 50 μL CellTiter-Glo® Luminescent cell viability assay solution in each well, gently shaken for 2 mins, and incubated at room temperature for 10 mins. The detection values of each well were read on the multi-functional microplate reader.
as §3, §4, §5

[2] = In vitro metabolic stability in rat liver microsome; format: in vitro ADME; conditions: rat liver microsomes
Experimental: (§6) 1900 mg MgCl2 was dissolved into a final volume of 400 mL ultra-pure water.
(§7) 17.42 g K2HPO4 and 13.65 g KH2PO4 were dissolved into a final volume of 1000 mL ultra-pure water, respectively. K2HPO4 and KH2PO4 were mixed to prepare 100 mM potassium phosphate (PBS) buffer. The pH value of the final solution was adjusted to pH 7.30±0.10.
(§8) Cold ACN (including 10 ng/mL Labetalol and 10 ng/mL Glibenclamid) was stored at 4° C.
(§9) Working Solution Preparation:
(§10) Verapamil (positive control) and test compound stock solution were diluted into a concentration of 50 μM and 200 μM respectively, using MeOH/ACN/H2O solution (1:1:2, v/v/v).
(§11) 1) 40 μL MgCl2 and 306 μL PBS were added to 96 plate wells (blank, compound wells, compounds without NADPH wells)
(§12) 2) 4 μL compound working solution was added to above wells (blank: 4 μL PBS buffer) (Note: the volume of DMSO in final incubation system ≤0.5%)
(§13) 3) 10 μL microsomes (20 mg/mL) was added in each well. The mixture was warmed up for 10 minutes at 37.0° C.
(§14) 4) 40 μL 10 mM NADPH working solution was added to start reaction. The total volume was 400 μL.
(§15) 5) Aliquots of 50 μL samples were taken from the reaction solution at 0, 5, 15, 45 min. The reaction solutions were stopped by the addition of 400 μL stop solution.
(§16) 6) The sampling plates were shaked for approx. 5 min.
(§17) 7) Samples were centrifuged at 3200 rcf for 10 min. then transferred 50 μL to a new plate dilute with 200 μL H2O for LC/MS/MS analysis.
(§18) Use equation of first order kinetics to calculate t1/2 and CL: […]
(§19) Where k represents elimination constant, which is calculated from a log linear plot of % Remaining versus time. t1/2 represents the half-life. Cprotein is the concentration of liver microsomes.

SHP2 = molecular target: T2, SHP2 (Homo sapiens, UniProt Q06124); test: SHP2 allosteric inhibitor enzyme activity assay (DiFMUP fluorescence); format: biochemical
T2 sequence (Q06124 1-593): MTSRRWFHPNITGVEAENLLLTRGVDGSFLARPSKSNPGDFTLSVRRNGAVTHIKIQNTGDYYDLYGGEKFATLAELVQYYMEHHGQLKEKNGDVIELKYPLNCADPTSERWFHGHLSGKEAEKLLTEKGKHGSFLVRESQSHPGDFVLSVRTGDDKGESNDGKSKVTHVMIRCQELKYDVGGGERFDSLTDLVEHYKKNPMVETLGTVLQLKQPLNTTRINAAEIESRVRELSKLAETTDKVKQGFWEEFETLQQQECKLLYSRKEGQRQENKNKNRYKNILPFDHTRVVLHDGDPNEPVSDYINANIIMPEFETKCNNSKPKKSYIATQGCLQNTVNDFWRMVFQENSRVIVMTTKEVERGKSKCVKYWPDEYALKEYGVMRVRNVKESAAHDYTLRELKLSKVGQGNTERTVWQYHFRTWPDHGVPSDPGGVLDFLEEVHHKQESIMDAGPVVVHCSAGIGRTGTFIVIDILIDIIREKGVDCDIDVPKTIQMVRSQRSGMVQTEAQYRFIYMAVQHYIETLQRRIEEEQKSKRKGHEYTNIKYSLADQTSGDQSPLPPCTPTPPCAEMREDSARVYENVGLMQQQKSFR
Outline: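 SHP2 activated by 0.5 μM IRS1_pY1172(dPEG8)pY1222 peptide, 0.2 ng enzyme per well, 1 h at room temperature with compound (1 μM top, 3-fold series), then DiFMUP substrate 1 h. Buffer: 60 mM HEPES, 75 mM NaCl, 75 mM KCl, 0.05% BRIJ-35, 1 mM EDTA, 5 mM DTT. Fluorescence ex 340/em 450 nm; IC50 by variable-slope fit.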

[3] = In vitro metabolic stability in human liver microsome; format: in vitro ADME; conditions: human liver microsomes
Experimental: as §6, §7, §8, §9, §10, §11, §12, §13, §14, §15, §16, §17, §18, §19

T1 sequence (Q12809 whole entry): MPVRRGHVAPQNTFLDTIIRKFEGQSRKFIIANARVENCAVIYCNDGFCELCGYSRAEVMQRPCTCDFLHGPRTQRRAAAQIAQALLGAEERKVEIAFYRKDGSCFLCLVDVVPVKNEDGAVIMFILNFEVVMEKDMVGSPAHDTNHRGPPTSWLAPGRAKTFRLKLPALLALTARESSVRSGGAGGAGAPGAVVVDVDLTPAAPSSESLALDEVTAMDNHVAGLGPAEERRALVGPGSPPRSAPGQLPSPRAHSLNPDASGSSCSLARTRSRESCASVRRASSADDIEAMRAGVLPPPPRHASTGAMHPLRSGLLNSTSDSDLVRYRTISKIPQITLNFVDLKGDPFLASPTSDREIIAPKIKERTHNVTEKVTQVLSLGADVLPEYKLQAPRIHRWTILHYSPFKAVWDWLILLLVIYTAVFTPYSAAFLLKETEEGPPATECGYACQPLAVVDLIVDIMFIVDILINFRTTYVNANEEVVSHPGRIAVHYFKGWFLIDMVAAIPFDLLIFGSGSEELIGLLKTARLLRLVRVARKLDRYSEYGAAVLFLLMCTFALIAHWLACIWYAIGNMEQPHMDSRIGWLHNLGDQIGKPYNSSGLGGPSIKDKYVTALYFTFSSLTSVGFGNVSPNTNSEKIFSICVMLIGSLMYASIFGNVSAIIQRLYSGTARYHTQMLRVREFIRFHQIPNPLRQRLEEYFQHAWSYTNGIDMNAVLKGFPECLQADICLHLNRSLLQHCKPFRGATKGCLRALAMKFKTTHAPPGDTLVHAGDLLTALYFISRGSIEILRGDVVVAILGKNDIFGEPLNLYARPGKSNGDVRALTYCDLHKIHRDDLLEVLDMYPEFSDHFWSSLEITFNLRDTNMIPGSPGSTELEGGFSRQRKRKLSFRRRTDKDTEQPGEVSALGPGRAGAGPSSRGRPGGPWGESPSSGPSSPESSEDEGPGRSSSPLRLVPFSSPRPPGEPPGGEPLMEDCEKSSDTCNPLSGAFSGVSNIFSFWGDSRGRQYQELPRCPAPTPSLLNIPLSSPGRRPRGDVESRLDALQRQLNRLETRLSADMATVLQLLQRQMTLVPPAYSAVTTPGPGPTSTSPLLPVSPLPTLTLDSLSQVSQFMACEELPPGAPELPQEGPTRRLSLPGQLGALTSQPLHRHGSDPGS

Row | SMILES | IC50 (hERG channel) [nM] | IC50 [1] [nM] | IC50 (leukemia MV-4-11 cell) [nM] | CLint Rat [2] [μL/min/mg proteins] | IC50 (SHP2; class symbols) [nM] | CLint Human [3] [μL/min/mg proteins] | IC50 (SHP2; numeric values) [nM]
1 | COc1ccc(C2(c3n[nH]c4nc(N5CCC6(CC5)Cc5ccccc5[C@H]6N)[nH]c(=O)c34)CC2)cc1 [Example 19, (S)-6-(1-amino-1,3-dihydrospiro[indene-2,4′-piperidin]-1′-yl)-3-(1-(4-methoxyphenyl)cyclopropyl)-1,5-dihydro-4H-pyrazolo[3,4-d]pyrimidin-4-one] | 11700 | 20 to 60 | ≤ 20 |  |  |  | 
2 | N[C@@H]1c2ccccc2CC12CCN(c1nc3[nH]nc(C4(c5ccc(OC(F)(F)F)cc5)CC4)c3c(=O)[nH]1)CC2 [Example 233, (S)-6-(1-amino-1,3-dihydrospiro[indene-2,4′-piperidin]-1′-yl)-3-(1-(4-(trifluoromethoxy)phenyl)cyclo-propyl)-1,5-dihydro-4H-pyrazolo[3,4-d]pyrimidin-4-one] |  |  |  | 3.4 | ≤ 20 | 0.2 | 
3 | CC(C)(c1ccccc1)c1n[nH]c2nc(N3CCC4(CC3)Cc3ccccc3[C@H]4N)[nH]c(=O)c12 [Example 216, (S)-6-(1-amino-1,3-dihydrospiro[indene-2,4′-piperidin]-1′-yl)-3-(2-phenylpropan-2-yl)-1,5-dihydro-4H-pyrazolo[3,4-d]pyrimidin-4-one] |  |  |  | 32.5 |  | 50.0 | 1.1
4 | CCOC(=O)Nc1ccc(C2(c3n[nH]c4nc(N5CCC6(CC5)Cc5ccccc5[C@H]6N)[nH]c(=O)c34)CC2)cc1 [Example 231, ethyl (S)-(4-(1-(6-(1-amino-1,3-dihydrospiro[indene-2,4′-piperidin]-1′-yl)-4-oxo-4,5-dihydro-1H-pyrazolo[3,4-d]pyrimidin-3-yl)cyclopropyl)phenyl)carbamate] | 7500 | 20 to 60 | ≤ 20 |  |  |  | 
5 | N[C@@H]1c2ccccc2CC12CCN(c1nc3[nH]nc(C4(Cc5ccccc5)CC4)c3c(=O)[nH]1)CC2 [Example 74] | 1840 |  |  | 102.0 |  | 182.7 | 
6 | Cn1c(N2CCC3(CC2)Cc2ccccc2[C@H]3N)nc2[nH]nc(Sc3cccc(Cl)c3Cl)c2c1=O [Comparative compound 1, reference compound] | 90 |  |  | 89.9 |  | 171.8 | 
